Test results published in patent US12102612B2, “Pharmaceutical composition comprising hydroquinone derivative for preventing or treating obesity or nonalcoholic steatohepatitis” (BIOTOXTECH CO., LTD., priority 2018, dated 2024).
“Also recorded” adds a separate entry of the source.

Tests used:
[1] = test system: western diet NASH mouse models; settings: cited from earlier work
[2] = test system: normal persons and nonalcoholic fatty liver patients; settings: 10-25 mg per adult; cited from earlier work
[3] = test system: CD-1(ICR) mice; settings: mouse, in vivo; cited from earlier work
[4] = test system: nonalcoholic fatty liver in mice; settings: cited from earlier work
[5] = test system: mice; settings: repeated for 13 weeks; cited from earlier work
[6] = test system: MCD diet-fed NASH model (8 weeks); experiment: Efficacy in NASH model fed with methionine and choline deficient (MCD) diet for 8 weeks; assay type: in vivo, male C57BL/6 mice; settings: MCD diet 8 weeks; for alleviative effect on NASH / inhibitory activity against NASH: compared to the negative control, RSV and DDB complex 200 mg/kg
Source text: A methionine and choline deficient (MCD) diet-fed model, in which steatosis has been induced as a result of the supply of a diet deficient in methionine and choline, which each play an important role in beta oxidation and very low-density lipoprotein, (VLDL) synthesis, is widely used as a model for observing an effect of alleviating NASH because it suffers from histopathologically serious lobular inflammation.
An MCD diet (RESEARCH DIETS, Product No: A02082002B) was fed 7-week-old male C57BL/6 mice for 4 weeks to induce nonalcoholic fatty liver and then for an additional 4 weeks during which the hydroquinone derivative compound 2,3,5-trimethylhydroquinone-1-hexylether (compound 1) according to the present invention and the comparative control drugs were orally administered to the mice at the specific doses repeatedly as indicated for test groups G3-G8 in Table 2. Alleviative effects on NASH were assessed by clinicopathological and histopathological examinations.
The normal group was fed with a normal diet (RESEARCH DIETS, Product No: A02082003B), but not the MCD diet. To the negative control, only the excipient 0.5% methyl cellulose (MC) aqueous solution was administered after the MCD diet was fed thereto. […] For resveratrol and the DDB hepatoprotectant, the daily dose was set forth to be 200 mg/kg.
(§1) The liver tissues were resected from mice fed with MCD diet for 8 weeks and prepared into hematoxylin-eosin (H&E) stained slides, as in the histopathological examination method of Test Example 1. Based on the criteria of Table 1, changes in 1) steatosis, 2) lesions such as hepatic lobular inflammation, etc. (lobular inflammation), and 3) ballooning degeneration of hepatocytes (ballooning) were analyzed and the scores were summed to afford NAFLD activity scores for evaluating therapeutic effects on NASH.

[7] = test system: MCD diet-fed NASH model (12 weeks); experiment: Efficacy in NASH model fed with MCD diet for 12 weeks; assay type: in vivo, male C57BL/6 mice; settings: MCD diet 12 weeks
Source text: The duration of feeding MCD diet was extended to a total of 12 weeks to increase the induction level of NASH. To this end, male C57BL/6 mice at 7 weeks of age were fed with a methionine and choline-deficient diet for 8 weeks to induce nonalcoholic fatty liver and then subjected to the same repeat administration program at the same doses for 4 weeks as in Table 2.

[8] = test system: adult; experiment: Clinical trial phase 1 (single and 14-day repetitive administration); assay type: in vivo, human; settings: for abnormal responses (such as dyslipidemia) after repetitive administration: up to 1,000 mg per adult for 14 days
[9] = test system: high-fat diet-induced insulin resistance; experiment: Insulin resistance assay in high-fat diet-fed mice; assay type: in vivo, male C57BL/6 mice; settings: week 7 of administration, vs negative control and other drug controls
Experimental: An insulin resistance assay was conducted on week 7 of administration of compound 1 to examine the effect of compound 1 on the insulin resistance induced by high-fat diet. For the insulin resistance assay, the mice were fast for 4 hours and intraperitoneally injected with insulin (0.7 IU/kg), followed by measuring blood glucose levels every 30 min. Insulin resistance was digitized for quantitative comparison. In this regard, while pre-insulin blood levels were set forth to be baselines, areas under the curves of reduced blood glucose levels were digitized into iAUC values (FIG. 14). Here, a smaller iAUC value means higher insulin resistance and a larger iAUC value means higher insulin sensitivity.

[10] = test system: rats; experiment: Toxicity assay of repetitive oral administration for 13 weeks; assay type: in vivo; settings: repeated for 13 weeks
[11] = test system: beagle dogs; experiment: Maximum tolerance dose in beagle dogs; assay type: in vivo
[12] = test system: high-fat diet-fed obesity and NASH model; experiment: Efficacy in obesity and NASH model fed with high-fat diet (HFD); assay type: in vivo, male C57BL/6 mice
Experimental: High-fat diet with 60 kcal % (RESEARCH DIETS, Product No: D12492) was fed to 7-week-old male C57BL/6 mice for 16 weeks to induce nonalcoholic fatty liver, followed by repeatedly administering test substances, along with the high-fat diet, via an oral route for 9 weeks from weeks 17 to 25. Alleviative effects on NASH were assessed by clinicopathological and histopathological examinations.
The test groups included a normal control which was not fed with HFD, but with a normal diet (10 kcal % fat diet, RESEARCH DIETS, Product No: D12450B), a negative control which was fed with HFD and then with the excipient 0.5% methyl cellulose (MC) aqueous solution alone, compound 1 (2,3,5-trimethylhydroquinone-1-hexylether)-administered groups (30, 100, 200 mg/kg), and comparative controls (obeticholic acid 30 mg/kg, pioglitazone 10 mg/kg, and DDB hepatoprotectant 200 mg/kg).
During repeatedly oral administration of the test substances for 9 weeks as in the assay method of (1), the mice were observed and recorded for weight gain, food intake, and general symptoms.
as §1, with “Liver” for “The liver”, “from HFD-fed” for “from”, “mice” for “mice fed with MCD diet for 8 weeks”

[13] = test system: rats; experiment: Single-dose oral administration toxicity assay for rats; assay type: in vivo; settings: single oral dose as high as 2000 mg/kg
[14] = test system: FFC diet-fed non-alcoholic steatohepatitis model; experiment: Efficacy in fat-, fructose- and cholesterol-rich (FFC) diet-fed non-alcoholic steatohepatitis model; assay type: in vivo, male C57BL/6 mice
Source text: FFC diet (fat-, fructose-, and cholesterol-rich diet) (RESEARCH DIETS, Product No.: D12079B) was fed to male C57BL/6 mice 6-7 weeks old for 16 weeks to induce nonalcoholic fatty liver. Only animals with a NAFLD activity score (NAS) of 3.2 or more were selected by biopsy. Two weeks after biopsy, the animals were divided into three test groups including a negative control injected with a 0.5% methyl cellulose (MC) aqueous solution only (FFC control) and compound 1 groups injected with a solution of compound 1 (2,3,5-trimethylhydroquinone-1-hexylether compound, 30 mg/kg and 200 mg/kg) in a 0.5% MC aqueous solution. Compound 1 was administered for a total of 2 months and evaluated for alleviative efficacy for NASH by histopathological examination.
For histopathological examination, the mice were sacrificed and subjected to hepatectomy. The liver tissues thus obtained were prepared into hematoxylin-eosin (H&E) stained slides. In brief, the resected liver tissues were fixed in 4% paraformaldehyde at 4° C. for 24 hours, washed with flowing water, embedded into paraffin, and sectioned into blocks 3-4 μm thick. The sectioned tissue was attached to a coated slide, de-paraffinized with xylene, and rehydrated with graded alcohols (99%, 95%, 90%, 80%, and 70% ethanol (EtOH)) before histological staining. The sectioned tissues were stained with hematoxylin for 5 min and washed with flowing water for 5 min, following by destaining with 1% HCl alcohol and ammonia. Subsequently, the tissues were washed with flowing water for 10 min, counterstained with eosin for 1 min, and dehydrated in the reverse order of the hydration before mounting.
The H&E-stained slides were histopathologically assessed under a microscope and scored according to the NAFLD activity score (NAS) criteria given in Table 1. NAFLD activity scores are expressed as a sum of assessment scores for changes in 1) steatosis, 2) lesions such as hepatic lobular inflammation, etc. (lobular inflammation), and 3) ballooning degeneration of hepatocytes (ballooning) and are widely used for evaluating the severity of NASH.

For `CC[C@H]1[C@@H](O)[C@@H]2[C@H](CC[C@]3(C)[C@@H]([C@H](C)CCC(=O)O)CC[C@@H]23)[C@@]2(C)CC[C@@H](O)C[C@@H]12` [Obeticholic acid, obeticholic acid], which “dose that aggravated NAFLD (liver fibrosis worsen, ALT level increased)” value [1] is on record?
The value was ≥ 40 mg/kg.

And the “total cholesterol and LDL cholesterol levels (side effect)” value [2]?
Its value is “increasing total cholesterol and LDL cholesterol levels”.

What about the “dose causing serious side effects such as death of animals” value [3] of the same compound?
Its value is ≥ 175 mg/kg.

With `CCc1ccc(CCOc2ccc(CC3SC(=O)NC3=O)cc2)nc1` (stereo not shown) [Pioglitazone, pioglitazone] as the compound, how does the “dose that aggravates fatty liver” value [4] read?
The value was 25 mg/kg.

And the “dose at which subject death occurred” value [5]?
Its value is ≥ 320 mg/kg.

And the “dose causing cardiac adverse effects” value [5]?
The value was ≥ 100 mg/kg.

For `Oc1ccc(C=Cc2cc(O)cc(O)c2)cc1` [Resveratrol, resveratrol, reference compound], which “alleviative effect on NASH / inhibitory activity against NASH” value [6] is on record?
Its value is “did not exhibit an alleviative effect on NASH”.

And the “alleviative effect on NASH” value ([7]; 200 mg/kg, compared to the negative control)?
Its value is “did not exhibit an alleviative effect on NASH”.

Which results are given for `CCCCCCOc1cc(C)c(O)c(C)c1C` [compound 1, 2,3,5-trimethylhydroquinone-1-hexylether]?
abnormal responses after single dose ([8]; single dose of up to 2,000 mg per adult): no abnormal responses were observed; abnormal responses (such as dyslipidemia) after repetitive administration [8]: no abnormal responses, such as dyslipidemia, were reported; also recorded: no abnormal responses were observed; abnormal responses (such as dyslipidemia) after repetitive administration ([8]; listed as 2,3,5-trimethylhydroquinone-1-hexylether): no abnormal responses were observed; blood glucose level upon insulin administration ([9]; 4 h fast, insulin 0.7 IU/kg i.p., FIG. 13): reduced in blood glucose level more fast; suppressive effect on high-fat diet-induced insulin resistance (iAUC values) ([9]; FIG. 14): higher suppressive effect on high-fat diet-induced insulin resistance; side effects such as death, weight loss, organ failure ([10]; dose as high as 500 mg/kg): did not invoke significant side effects; also recorded: no side effects such as death, weight loss, organ failure, etc. were detected; changes in weight gain, food consumption, urological and serological examinations ([10]; up to 500 mg/kg, FIG. 12): No changes attributed to the administration of compound 1 were detected; ALT level ([6]; 200 mg/kg, vs negative control and comparative control groups, FIG. 6): remarkably reduced; alleviative effect on NASH / inhibitory activity against NASH [6]: excellent inhibitory activity against NASH; effect of reducing lobular inflammatory cellular infiltration ([6]; oral 30 and 200 mg/kg for 4 weeks, vs MCD control, FIG. 4): remarkable; NAFLD activity scores ([6]; FIG. 5): reduce; anti-inflammatory efficacy compared to pioglitazone (PGZ) and obeticholic acid (OCA) ([6]; PGZ 10 mg/kg, OCA 30 mg/kg): excellent anti-inflammatory efficacy; maximum tolerance dose [11]: 2,000 mg/kg; suppressive effect on lobular inflammation ([12]; 200 mg/kg, compared to the other drug groups): remarkably highly suppressive effect; fatty liver ([12]; 30, 100, 200 mg/kg, vs HFD control, dose-dependent): alleviated; hepatic lobular cellular infiltration ([12]; 30, 100, 200 mg/kg, vs HFD control, dose-dependent, FIG. 15): alleviated; blood levels of cholesterol ([12]; HFD model, compared to the negative control, FIG. 19(A)): reduced; blood levels of triglyceride ([12]; HFD model, compared to the negative control, FIG. 19(B)): reduced; ALT ([12]; HFD model, relative to normal levels, FIG. 17): recovered; AST ([12]; HFD model, relative to normal levels, FIG. 18): recovered; ALT levels vs the other drug controls ([12]; HFD model, FIG. 17): further reduced; AST levels vs the other drug controls ([12]; HFD model, FIG. 18): further reduced; accumulation of visceral fats such as epididymal fats (epididymal fat weights) ([12]; autopsy after 9 weeks oral administration, FIG. 11): excellent effect of inhibiting the accumulation of visceral fats; therapeutic effects on NASH by histopathological examinations (lobular inflammation, NAFLD activity scores) ([12]; compared to the other drugs, FIGS. 15 and 16): excellent therapeutic effects on NASH; weight gain increments resulting from the intake of high-fat diet ([12]; oral 30, 100, 200 mg/kg for 9 weeks, vs HFD control, FIG. 9): remarkably reduced; mortality [13]: did not cause mortality; lobular inflammatory cellular infiltration ([7]; oral 30 and 200 mg/kg for 4 weeks, vs MCD control, dose-dependent, FIG. 7): reduced lobular inflammatory cellular infiltration; NAFLD activity scores ([7]; vs MCD control, dose-dependent, FIG. 8): lowered NAFLD activity scores; anti-inflammatory effect compared to pioglitazone (PGZ) and obeticholic acid (OCA) ([7]; PGZ 10 mg/kg, OCA 30 mg/kg): excellent anti-inflammatory effect; fatty liver ([14]; 30 and 200 mg/kg for 2 months, dose-dependent, FIG. 2): alleviated; NAFLD activity scores ([14]; 30 and 200 mg/kg for 2 months, dose-dependent, FIG. 3): alleviated; lobular inflammatory cellular infiltration (lobular inflammation) ([14]; compound 1 30 and 200 mg/kg for 2 months, vs FFC control, FIG. 1): decrease lobular inflammatory cellular infiltration
